According to patent US8389532B2, “7-[2-[4-(6-fluoro-3-methyl-1,2-benzisoxazol-5-yl)-1-piperazinyl]ethyl]-2-(1-propynyl)-7H-pyrazolo-[4,3-E]-[1,2,4]-triazolo-[1,5-C]-pyrimidin-5-amine” (Merck Sharp & Dohme Corp., priority 2005, dated 2013):

How the values were obtained:
A2a receptor = molecular target: T1, A2a receptor (Rattus norvegicus, UniProt P30543); test: Ex vivo binding study to show duration of receptor occupancy (striatal homogenate, 3H-SCH 58261); type: in vivo; conditions: rats dosed 1 mg/kg; for receptor occupancy at 1 mg/kg: rat, 4 hours prior to sacrifice, read-out: decrease in 3H-SCH 58261 binding (receptor occupancy)
T1 construct: The A2a receptor-rich striatal nucleus was dissected and homogenized in buffer solution; from tissue; host or cells: rat striatum homogenate
Procedure: Ex Vivo Binding Study to Show Duration of Receptor Occupancy:
Rats were dosed with 1 mg/kg of the compound of formula I and the compound of formula II (generically disclosed in U.S. Pat. No. 6,897,217)
[drawing 4] for 4, 8, 12, and 16 hours prior to sacrifice and removal of brains. The A2a receptor-rich striatal nucleus was dissected and homogenized in buffer solution. Striatal homogenate was incubated with the A2a antagonist radioligand ^3H-SCH 58261 (see WO 96/38728) prior to separation of bound and free radioactivity by filtration. Bound radioligand on filters was dried, soaked with scintillation fluid, and counted. Homogenates from striata of vehicle-treated rats treated with the same experimental conditions defined the quantity of bound radioligand in the absence of test compound.

[1] = molecular target: T2, Human A2a Adenosine Receptor (Homo sapiens, UniProt P29274); test: Human adenosine A2a receptor competition binding assay; conditions: [3H]-SCH 58261 0.5 nM, human A2a membranes
T2 construct: purchased Perkin Elmer Life Sciences RBHA2AM
Procedure: (§1) Human Adenosine A2a and A1 Receptor Competition Binding Assay Protocol
A2a: Human A2a Adenosine Receptor membranes, Catalog #RBHA2AM, Perkin Elmer Life Sciences, Shelton Conn. Dilute to 17 μg/100 μl in membrane dilution buffer (see below).
(§2) Membrane dilution buffer: Dulbecco's Phosphate Buffered Saline (Gibco/BRL)+10 mM MgCl2.
(§3) Compound Dilution Buffer: Dulbecco's Phosphate Buffered Saline (Gibco/BRL)+10 mM MgCl2 supplemented with 1.6 mg/ml methyl cellulose and 16% DMSO. Prepared fresh daily.
A2a: [3H]-SCH 58261, custom synthesis, AmershamPharmacia Biotech, Piscataway, N.J. Stock is prepared at 1 nM in membrane dilution buffer. Final assay concentration is 0.5 nM.
A2a: To determine non-specific binding, add 100 nM CGS 15923 (RBI, Natick, Mass.). Working stock is prepared at 400 nM in compound dilution buffer.
(§4) Prepare 1 mM stock solutions of compounds in 100% DMSO. Dilute in compound dilution buffer. Test at 10 concentrations ranging from 3 μM to 30 pM. Prepare working solutions at 4× final concentration in compound dilution buffer.
(§5) Perform assays in deep well 96 well plates. Total assay volume is 200 μl. Add 50 μl compound dilution buffer (total ligand binding) or 50 μl CGS 15923 working solution (A2a non-specific binding) or 50 μl NECA working solution (A1 non-specific binding) or 50 μl of drug working solution. Add 50 μl ligand stock ([3H]-SCH 58261 for A2a, [3H]-DPCPX for A1). […]

[2] = test system: haloperidol-induced catalepsy; test: Haloperidol-induced catalepsy in the rat; type: in vivo; conditions: @ 4 h, rats
Procedure: Haloperidol-Induced Catalepsy in the Rat Male Sprague-Dawley rats (Charles River, Calco, Italy) weighing 175-200 g are used. The cataleptic state is induced by the subcutaneous administration of the dopamine receptor antagonist haloperidol (1 mg/kg, sc), 90 min before testing the animals on the vertical grid test. For this test, the rats are placed on the wire mesh cover of a 25×43 plexiglass cage placed at an angle of about 70 degrees with the bench table. The rat is placed on the grid with all four legs abducted and extended (“frog posture”). The use of such an unnatural posture is essential for the specificity of this test for catalepsy. The time span from placement of the paws until the first complete removal of one paw (descent latency) is measured maximally for 120 sec. The selective A2A adenosine antagonists under evaluation are administered orally at doses ranging between 0.03 and 3 mg/kg, 1 and 4 h before scoring the animals.

A1 receptor = molecular target: T3, A1 receptor (Homo sapiens, UniProt P30542); test: Human adenosine A1 receptor competition binding assay (selectivity vs A2a); conditions: A1 ligand [3H]-DPCPX
T3 sequence (P30542 1-326): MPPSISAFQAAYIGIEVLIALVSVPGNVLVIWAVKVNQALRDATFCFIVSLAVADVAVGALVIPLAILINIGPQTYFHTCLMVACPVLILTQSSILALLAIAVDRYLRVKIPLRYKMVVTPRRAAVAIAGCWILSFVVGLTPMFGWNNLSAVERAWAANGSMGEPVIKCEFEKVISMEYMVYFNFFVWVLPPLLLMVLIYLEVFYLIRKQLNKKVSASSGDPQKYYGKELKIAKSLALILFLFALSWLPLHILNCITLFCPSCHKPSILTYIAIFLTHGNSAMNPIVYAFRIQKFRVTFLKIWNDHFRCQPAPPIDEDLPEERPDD
Procedure: as §1, §2, §3
A1: [3H]-DPCPX, AmershamPharmacia Biotech, Piscataway, N.J. Stock is prepared at 2 nM in membrane dilution buffer. Final assay concentration is 1 nM.
A1: To determine non-specific binding, add 100 μM NECA (RBI, Natick, Mass.). Working stock is prepared at 400 μM in compound dilution buffer.
as §4
as §5, with “A1). Add 100 μl of diluted membranes containing the appropriate receptor. Mix. Incubate at room temperature for 90 minutes.” for “A1).”
Selectivity is determined by dividing Ki for A1 receptor by Ki for A2a receptor. […]

6-OHDA lesioned rats = test: 6-OHDA lesion of the middle forebrain bundle in rats (contralateral turning with subthreshold L-DOPA); type: in vivo, rat; conditions: combined with sub-threshold L-DOPA
Procedure: 6-OHDA Lesion of the Middle Forebrain Bundle in Rats
Adult male Sprague-Dowley rats (Charles River, Calco, Como, Italy), weighing 275-300 g, are used in all experiments. The rats are housed in groups of 4 per cage, with free access to food and water, under controlled temperature and 12 hour light/dark cycle. The day before the surgery the rats are fasted over night with water ad libitum.
Unilateral 6-hydroxydopamine (6-OHDA) lesion of the middle forebrain bundle is performed according to the method described by Ungerstedt et al. (Brain Research, 1971, 6-OHDA and Cathecolamine Neurons, North Holland, Amsterdam, 101-127), with minor changes. Briefly, the animals are anaesthetized with chloral hydrate (400 mg/kg, ip) and treated with desipramine (10 mpk, ip) 30 min prior to 6-OHDA injection in order to block the uptake of the toxin by the noradrenergic terminals. Then, the animals are placed in a stereotaxic frame. The skin over the skull is reflected and the stereotaxic coordinates (−2.2 posterior from bregma (AP), +1.5 lateral from bregma (ML), 7.8 ventral from dura (DV) are taken, according to the atlas of Pellegrino et al (Pellegrino L. J., Pellegrino A. S. and Cushman A. J., A Stereotaxic Atlas of the Rat Brain, 1979, New York: Plenum Press). A burr hole is then placed in the skull over the lesion site and a needle, attached to a Hamilton syringe, is lowered into the left MFB. Then 8 μg 6-OHDA-HCl is dissolved in 4 μl of saline with 0.05% ascorbic acid as antioxidant, and infused at the constant flow rate of 1 μl/1 min using an infusion pump. The needle is withdrawn after additional 5 min and the surgical wound is closed and the animals left to recover for 2 weeks.
Any rat not showing at least 200 complete turns/2 h is not included in the study.
Selected rats receive the test drug 3 days after the priming test (maximal dopamine receptor supersensitivity).

haloperidol-induced EPS = test: EPS assay in haloperidol-sensitized Cebus apella monkeys; type: in vivo; conditions: 30 mg/kg co-administered with haloperidol 0.3 mg/kg
Procedure: A test compound is administered orally (p.o.) at a dose ranging from 0.3-30 mg/kg, in conjunction with haloperidol. The studies are conducted using a within-subjects design such that each monkey receives all treatments (vehicle and doses of test compound) in a crossover, balanced design. The reduction in the maximum EPS score, as well as the dose-dependent delay in the onset of EPS are determined. In the EPS assay, four haloperidol-sensitized monkeys were co-administered the compound of formula I (30 mg/kg) and haloperidol (0.3 mg/kg) in a banana. A scoring system to rate the severity of each symptom was employed over a 6 hour observation period.

T1 sequence (P30543 whole entry): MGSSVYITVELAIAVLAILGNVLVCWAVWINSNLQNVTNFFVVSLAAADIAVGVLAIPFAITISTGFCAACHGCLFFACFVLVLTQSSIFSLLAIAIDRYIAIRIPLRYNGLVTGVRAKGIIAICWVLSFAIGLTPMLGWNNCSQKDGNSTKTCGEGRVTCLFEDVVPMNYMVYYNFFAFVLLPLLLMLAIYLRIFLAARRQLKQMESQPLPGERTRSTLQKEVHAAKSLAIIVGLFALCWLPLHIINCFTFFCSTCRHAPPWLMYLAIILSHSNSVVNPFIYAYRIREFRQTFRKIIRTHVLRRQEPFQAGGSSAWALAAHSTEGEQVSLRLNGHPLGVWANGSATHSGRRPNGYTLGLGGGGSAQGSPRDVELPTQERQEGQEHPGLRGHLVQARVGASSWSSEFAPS
T2 sequence (P29274 whole entry): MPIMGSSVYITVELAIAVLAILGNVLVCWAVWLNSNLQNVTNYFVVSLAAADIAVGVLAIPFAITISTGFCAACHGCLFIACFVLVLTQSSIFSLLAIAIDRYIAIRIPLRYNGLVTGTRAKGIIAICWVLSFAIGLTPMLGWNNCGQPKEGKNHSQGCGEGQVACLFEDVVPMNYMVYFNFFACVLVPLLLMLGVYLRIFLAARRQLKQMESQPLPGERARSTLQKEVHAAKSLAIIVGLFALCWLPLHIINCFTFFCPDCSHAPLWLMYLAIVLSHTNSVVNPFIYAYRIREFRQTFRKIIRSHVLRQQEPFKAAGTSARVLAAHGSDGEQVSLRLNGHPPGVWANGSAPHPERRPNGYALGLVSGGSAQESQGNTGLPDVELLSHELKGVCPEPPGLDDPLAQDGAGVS

Compound	receptor occupancy at 1 mg/kg (A2a receptor)	displacement of radiolabel (3H-SCH 58261) (A2a receptor; 12 hours)	Ki [1]	inhibition of catalepsy ([2]; 0.3 mpk orally)	inhibition of catalepsy ([2]; 1 mpk orally)	inhibition of catalepsy ([2]; 3 mpk orally)	Selectivity (Ki for A1 receptor divided by Ki for A2a receptor) (A1 receptor)	contralateral turning (6-OHDA lesioned rats; 0.1 mpk orally)	contralateral turning (6-OHDA lesioned rats; 0.3 mpk orally)	contralateral turning (6-OHDA lesioned rats; 1 mpk orally)	contralateral turning (6-OHDA lesioned rats; 3 mpk orally)	effect on haloperidol-induced EPS, three of four subjects (haloperidol-induced EPS; 6 hr observation period)	effect on haloperidol-induced EPS, fourth subject (haloperidol-induced EPS; compared with haloperidol alone)	3H-SCH 58261 radioligand binding (receptor occupancy) (A2a receptor; 8 hours)
CC#Cc1nc2c3cnn(CCN4CCN(c5cc6c(C)noc6cc5F)CC4)c3nc(N)n2n1 [compound of formula I, 7-[2-[4-(6-fluoro-3-methyl-1,2-benzisoxazol-5-yl)-1-piperazinyl]ethyl]-2-(1-propynyl)-7H-pyrazolo-[4,3-e]-[1,2,4]-triazolo[1,5-c]pyrimidin-5-amine]	42%	40%	430 pM	28%	47%	53%	greater than 2500 fold	218±142 rotations	406±167 rotations	360±178 rotations	403±125 rotations	completely blocked haloperidol-induced EPS	delayed onset and reduced severity of EPS	
CC#Cc1nc2c3cnn(CCN4CCN(c5cc(-c6noc(C)n6)ccc5F)CC4)c3nc(N)n2n1 [formula II, reference compound]	47%													restored to near vehicle-treated levels
